Among the data in ChEMBL document CHEMBL3507680, “University of Dundee, Gates Library screen for HepG2 cell viability” are cytotoxicity values, retold here.

This data set is described as follows: Human HepG2 cell viability assay in 384 well format. Type of data set: toxicity, cell-based. Further details: dose 125 nL, time 70.5 hour; concentration not given beside the values. As to conditions: HepG2 cells, read-out: Inhibition.
Turning to `c1nc2c(c(NC3CCc4ncnn4C3)n1)CCC2` (stereo not given), the cytotoxicity at 70.5 h is -8.75%.
Take `N#Cc1cccc(OCCN2CCC(C(=O)N3CCOCC3)CC2)c1`: the cytotoxicity at 70.5 h was -11.2%.
With `CCC(C)(C)NC(=O)C[S+]([O-])Cc1csc(C2CCCC2)n1` (stereo not given), the cytotoxicity at 70.5 h stood at 11%.
In the case of `CCN(CC)c1ncc(Cl)c(C(=O)NC2CCC(O)CC2)n1` (stereo not given) it was -0.431%.
As for `O=C(CCn1cncn1)NCC1CCCC1`, the cytotoxicity at 70.5 h is -6.57%.
In the case of `COCCN(Cc1ccccn1)C(=O)CC1OCCc2sccc21` (stereo not given) it was -9.62%; in that of `CCCc1nn(Cc2csc(C(C)C)n2)c(=O)o1`, -7.07%; in that of `N#Cc1ccccc1OCCN1CCN(C(=O)C2CCCC2)CC1`, 7.87%.
As for `COc1ccc2c(c1)CC(NCc1cccc(NC(C)=O)c1)CC2` (stereo not given), the cytotoxicity at 70.5 h was -5.85%.
For the compound `Cc1cnc(N2CCC(OCCN3CCCCC3)C2)nc1C` (stereo not given), the cytotoxicity at 70.5 h is -4.38%.
As to `COCCN(Cc1ccccn1)C(=O)CC1OCCc2ccccc21` (stereo not given), the cytotoxicity at 70.5 h was -6.98%.
In the case of `CCN1CCC(NC(=O)CNC(C)Cn2cccn2)CC1` (stereo not given), the cytotoxicity at 70.5 h turned out to be 11.4%.
With `Cn1cc(C(=O)N2CCN(c3ccccc3)CC2)ccc1=O`, the cytotoxicity at 70.5 h was -6.86%.
In the case of `CCCC(NC(=O)c1cc(C2CC2)[nH]n1)c1nnc2ccccn12` (stereo not given) it was -12.1%; in that of `Cc1cc(C)c(CNC(=O)NC2CCN(C(=O)C(C)C)CC2)c(C)c1`, -10.6%; in that of `CC(C)(C)NCC(=O)N1CCCC(n2ccnc2)C1` (stereo not given), -9.3%.
The result for `Cc1cnn(CCNCc2nccn2CC(F)(F)F)c1` reads 1.15%; that for `COc1ccc(C2(c3nc(-c4cnn(C)c4)no3)CCOCC2)cc1`, -3.48%.
In the case of `Cc1cnn(CC(C)NCC(=O)NC2CCOCC2)c1` (stereo not given), the cytotoxicity at 70.5 h came out at 18.5%.
`CC(=O)Nc1ccc(CNC2COc3c2ccc(C)c3C)cc1` (stereo not given): the cytotoxicity at 70.5 h worked out at 15.7%.
In the case of `CCc1ccccc1CNC(=O)CNC(=O)C(C)(C)C` it was -6.65%.
In the case of `CN(c1cccnc1N1CCCC1)S(=O)(=O)c1cccs1`, the cytotoxicity at 70.5 h was found to be 12.7%.
In the case of `O=C(C[S+]([O-])c1ccc(F)c(F)c1)NCc1cc(F)cc(F)c1` (stereo not given) it was -2.62%.
In the case of `COc1ccccc1[S+]([O-])CC(=O)NCc1cc(F)cc(F)c1` (stereo not given) it was 2.23%; in that of `CC(C)c1nc(C(=O)N(C)c2ccc(Br)cn2)cs1`, -8.09%.
Take `COc1ccccc1NC(=O)CC(C)NCc1scnc1C` (stereo not given): the cytotoxicity at 70.5 h is -4.53%.
For the compound `CC(C)c1ocnc1C(=O)N1CCC2(CC1)OCCO2`, the cytotoxicity at 70.5 h was -8.01%.
In the case of `CCOCCN(C)C(c1cccnc1)c1ccc(F)cc1F` (stereo not given) it was -3.04%; in that of `CCC(CCNCc1cnc(C2CCC2)s1)N1CCCC1=O` (stereo not given), 26.8%.
In the case of `O=C(OCc1cccs1)c1cccc(C(=O)N2CCCC2)n1` it was -8.17%; in that of `Cc1nnc(CN2CCCC2c2ccc3c(c2)OCCO3)n1C` (stereo not given), -3.49%; in that of `CC(C)C(C)N(C)Cc1nnc(-c2ccc(Br)s2)o1` (stereo not given), -3%.
For `COCCOc1ccc(S(=O)(=O)Nc2cccnc2O)cc1C`, the cytotoxicity at 70.5 h is -4.13%.
In the case of `CC(C)(C)OC(=O)NCCC(=O)NCC(O)c1cccc(F)c1` (stereo not given) it was -0.447%; in that of `Cn1cnnc1CNC(=O)c1ccc(Br)cc1O`, -3.54%.
In the case of `COc1cc2nc(C)sc2cc1NC(=O)C(C)NC(N)=O` (stereo not given) it was 1.54%.
In the case of `COc1cc2nc(C)sc2cc1NC(=O)CN(C)C(C)C` it was 4.08%; in that of `Cn1ccc2c(C(=O)NCC3(C(N)=O)CCOCC3)cccc21`, 1.25%.
Regarding `CNC(=O)NC(=O)CN(C)C(c1cccnc1)c1ccc(F)cc1F` (stereo not given), the cytotoxicity at 70.5 h is -1.87%.
Consider `CCCC(=O)NC(Cc1ccc(C)cc1)c1ccccn1` (stereo not given), for which the cytotoxicity at 70.5 h is 2.81%.
The result for `Cc1ccc(CC(NC(=O)Cn2cnnn2)c2ccccn2)cc1` (stereo not given) reads -1.31%.
As to `CSCC(=O)NC(Cc1ccc(C)cc1)c1ccccn1` (stereo not given), the cytotoxicity at 70.5 h was determined as 0.833%.
In the case of `Cc1cc(C)n(C2CCCN(C(=O)CN(C)c3cnccn3)C2)n1` (stereo not given) it was -0.822%; in that of `O=C1NCCCC1NC(=O)C1(c2cccc(Cl)c2)CCC1` (stereo not given), -0.27%; in that of `CCCNC(=O)CCC(=O)Nc1cc2sc(C)nc2cc1OC`, 0.815%.
In the case of `O=C(OCCF)c1cccc(C(=O)N2CCCC2)n1` it was 26.7%; in that of `Cc1ccc(CC(NC(=O)CN(C)C2CC2)c2ccccn2)cc1` (stereo not given), -1.04%; in that of `CCCn1nc(C(=O)N(C)Cc2nnc3n2CCC3)ccc1=O`, -6.95%.
Consider `Cc1cnn(CCC(=O)NCc2ccc(N(C)C)c(C)c2)c1`, for which the cytotoxicity at 70.5 h is -5.29%.
Take `COc1cccc(-c2cc(NCc3cscn3)n(C)n2)c1`: the cytotoxicity at 70.5 h is -7.72%.
As for `CCCN1CCC(NCc2cccc(CN3CCOC(C)C3)c2)CC1` (stereo not given), the cytotoxicity at 70.5 h turned out to be 27.7%.
In the case of `N#CCCN(CCC#N)C(=O)c1cccc(N2CCNC2=O)c1` it was -7.77%; in that of `N#Cc1cccc(S(=O)(=O)NC2CCN(CC(F)(F)F)C2)c1` (stereo not given), -15.4%.
For the compound `Cc1cnn(C2CCCN(C(=O)c3cc(-c4ccccc4C)n[nH]3)C2)c1` (stereo not given), the cytotoxicity at 70.5 h worked out at 9.61%.
Take `Cn1ccnc1CN1CCN(Cc2cc(-c3ccccc3)no2)CC1`: the cytotoxicity at 70.5 h was -16.7%.
Regarding `Cn1cnnc1C1CCN(c2nc3ccccc3o2)CC1`, the cytotoxicity at 70.5 h was -5.83%.
For the compound `COc1ccc(C2CCN(S(=O)(=O)CCCC#N)CC2)cc1`, the cytotoxicity at 70.5 h is -9.02%.
Regarding `CCCS(=O)(=O)N1CCC(c2ccc(OC)cc2)CC1`, the cytotoxicity at 70.5 h is -5.25%.
Take `CC(=O)c1sc(C(NC(=O)c2ccccc2)C2CC2)nc1C` (stereo not given): the cytotoxicity at 70.5 h came to 8.83%.
As for `Cc1ccccc1C(NC(=O)CCCS(C)(=O)=O)C(C)(C)C` (stereo not given), the cytotoxicity at 70.5 h amounted to 14.3%.
The result for `Cc1nc(C)c(C(=O)N2CCCc3c(F)cccc32)o1` reads -5.01%; that for `Cc1nc(C)c(C(=O)N2CCc3c(C)cccc32)o1`, -5.23%.
In the case of `Cc1nc(C)c(C(=O)N2CCc3c(Cl)cccc32)o1` it was 1.38%; in that of `COC(=O)c1ccc(Cn2cccc(C(F)(F)F)c2=O)c(OC)c1`, 21.6%.
For `CC(C)N(CC(=O)Nc1cccc(C(=O)N(C)C)c1)C1CC1`, the cytotoxicity at 70.5 h stood at 7.53%.
The result for `COc1ccc(CCN2CCCC(n3cncn3)C2)cc1` (stereo not given) reads -10.1%; that for `CC1CN(C)CCN1C(=O)c1cccn1Cc1ccncc1` (stereo not given), -0.0265%.
`CN(C)c1ncccc1NC(=O)COC1CCCC1`: the cytotoxicity at 70.5 h was -5.74%.
The result for `CC1CN(Cc2cccc(CNC3CCCC3)c2)CCO1` (stereo not given) reads 12.8%; that for `CN(C)c1ncccc1NC(=O)COCC1CC1`, -9.25%.
The result for `FC(F)(F)Oc1ccc(CN2CCCC(n3cncn3)C2)cc1` (stereo not given) reads -10.6%; that for `Cc1nc(CN(C)S(=O)(=O)c2ccccc2C(F)(F)F)no1`, -5.33%.
In the case of `COc1cccnc1NC(=O)COC1CCCC1` it was 24.8%; in that of `Cc1noc(C(C)N2CCN(Cc3noc(C4CC4)n3)CC2)n1` (stereo not given), -8.62%; in that of `NCc1ccc(OC(F)F)cc1OC(F)F`, -15.9%.
